Assay results from paper PMC11937972 (JACS Au, 2025).
Where two headings read alike, the source gives them in different places.

Key:
[1] = target: T1, URAT1^EM (humanized rat URAT1, rURAT1-3M) (Rattus norvegicus, UniProt Q3ZAV1, M481I/N35S/Y365F); test: cell-based
T1 sequence (Q3ZAV1 1-553 N35S/Y365F/M481I): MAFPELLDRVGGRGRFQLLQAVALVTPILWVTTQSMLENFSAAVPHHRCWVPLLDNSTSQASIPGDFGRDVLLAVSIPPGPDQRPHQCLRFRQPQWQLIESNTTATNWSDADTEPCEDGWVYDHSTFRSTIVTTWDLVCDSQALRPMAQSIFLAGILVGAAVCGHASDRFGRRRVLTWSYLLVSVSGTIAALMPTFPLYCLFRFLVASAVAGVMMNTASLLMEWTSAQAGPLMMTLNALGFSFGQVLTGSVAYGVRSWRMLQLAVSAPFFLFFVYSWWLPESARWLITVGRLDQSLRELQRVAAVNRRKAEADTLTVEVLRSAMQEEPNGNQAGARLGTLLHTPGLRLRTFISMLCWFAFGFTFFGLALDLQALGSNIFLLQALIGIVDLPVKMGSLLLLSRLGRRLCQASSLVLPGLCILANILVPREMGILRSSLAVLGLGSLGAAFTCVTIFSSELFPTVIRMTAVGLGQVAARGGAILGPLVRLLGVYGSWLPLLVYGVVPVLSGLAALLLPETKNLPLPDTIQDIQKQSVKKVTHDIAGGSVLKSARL

[2] = target: T1, URAT1^EM (humanized rat URAT1, rURAT1-3M); test: cryo-EM structure at […] Å; format: cell-based
human URAT1 (hURAT1) = target: T2, human URAT1 (hURAT1) (Homo sapiens, UniProt Q96S37); test: inhibition of urate uptake in transfected HEK293T cells; format: cell-based
T2 sequence (Q96S37 1-553): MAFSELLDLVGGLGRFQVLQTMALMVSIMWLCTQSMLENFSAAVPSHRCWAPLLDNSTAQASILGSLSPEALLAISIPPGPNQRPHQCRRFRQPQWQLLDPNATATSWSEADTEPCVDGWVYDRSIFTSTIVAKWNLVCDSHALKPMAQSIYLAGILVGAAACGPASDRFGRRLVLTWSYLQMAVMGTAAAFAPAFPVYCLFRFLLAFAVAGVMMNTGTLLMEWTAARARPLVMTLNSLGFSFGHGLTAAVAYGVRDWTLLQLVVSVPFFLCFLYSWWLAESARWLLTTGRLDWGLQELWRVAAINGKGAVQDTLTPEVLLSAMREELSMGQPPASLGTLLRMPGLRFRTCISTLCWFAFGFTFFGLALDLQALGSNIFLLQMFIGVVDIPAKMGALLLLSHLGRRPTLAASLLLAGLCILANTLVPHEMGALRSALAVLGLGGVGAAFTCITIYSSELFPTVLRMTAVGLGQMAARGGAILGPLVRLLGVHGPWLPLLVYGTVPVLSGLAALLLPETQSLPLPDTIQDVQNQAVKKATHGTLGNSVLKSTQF

[3] = substrate: O=c1[nH]c(=O)c2[nH]c(=O)[nH]c2[nH]1; test: concentration-dependent urate uptake in HEK293T cells, Km; format: cell-based, Rattus norvegicus
[4] = substrate: O=c1[nH]c(=O)c2[nH]c(=O)[nH]c2[nH]1; test: as above; format: cell-based, Homo sapiens

CCc1oc2ccccc2c1C(=O)c1cc(Br)c(O)c(Br)c1 [BEN, benzbromarone]
IC50 [1]: 425 nM

CC(C)(Sc1ccncc1-c1ccc(C#N)c2ccccc12)C(=O)O [VER, verinurad]
IC50 [2]: 150 nM | IC50 (human URAT1 (hURAT1)): Inhibition of human URAT1 WT and variants by verinurad.

B1: URAT1^EM (humanized rat URAT1, rURAT1-3M) (Rattus norvegicus; M481I/N35S/Y365F) (protein)
chain: MAFPELLDRVGGRGRFQLLQAVALVTPILWVTTQSMLENFSAAVPHHRCWVPLLDNSTSQASIPGDFGRDVLLAVSIPPGPDQRPHQCLRFRQPQWQLIESNTTATNWSDADTEPCEDGWVYDHSTFRSTIVTTWDLVCDSQALRPMAQSIFLAGILVGAAVCGHASDRFGRRRVLTWSYLLVSVSGTIAALMPTFPLYCLFRFLVASAVAGVMMNTASLLMEWTSAQAGPLMMTLNALGFSFGQVLTGSVAYGVRSWRMLQLAVSAPFFLFFVYSWWLPESARWLITVGRLDQSLRELQRVAAVNRRKAEADTLTVEVLRSAMQEEPNGNQAGARLGTLLHTPGLRLRTFISMLCWFAFGFTFFGLALDLQALGSNIFLLQALIGIVDLPVKMGSLLLLSRLGRRLCQASSLVLPGLCILANILVPREMGILRSSLAVLGLGSLGAAFTCVTIFSSELFPTVIRMTAVGLGQVAARGGAILGPLVRLLGVYGSWLPLLVYGVVPVLSGLAALLLPETKNLPLPDTIQDIQKQSVKKVTHDIAGGSVLKSARL
Km [3]: 203 µM

B2: human URAT1 (hURAT1) (Homo sapiens) (protein)
chain: MAFSELLDLVGGLGRFQVLQTMALMVSIMWLCTQSMLENFSAAVPSHRCWAPLLDNSTAQASILGSLSPEALLAISIPPGPNQRPHQCRRFRQPQWQLLDPNATATSWSEADTEPCVDGWVYDRSIFTSTIVAKWNLVCDSHALKPMAQSIYLAGILVGAAACGPASDRFGRRLVLTWSYLQMAVMGTAAAFAPAFPVYCLFRFLLAFAVAGVMMNTGTLLMEWTAARARPLVMTLNSLGFSFGHGLTAAVAYGVRDWTLLQLVVSVPFFLCFLYSWWLAESARWLLTTGRLDWGLQELWRVAAINGKGAVQDTLTPEVLLSAMREELSMGQPPASLGTLLRMPGLRFRTCISTLCWFAFGFTFFGLALDLQALGSNIFLLQMFIGVVDIPAKMGALLLLSHLGRRPTLAASLLLAGLCILANTLVPHEMGALRSALAVLGLGGVGAAFTCITIYSSELFPTVLRMTAVGLGQMAARGGAILGPLVRLLGVHGPWLPLLVYGTVPVLSGLAALLLPETQSLPLPDTIQDVQNQAVKKATHGTLGNSVLKSTQF
Km [4]: 80 µM
